{
  "source": "patent US7071168B2",
  "about": "“Anti-cancer compounds and methods related thereto” (The Regents of the University of Colorado, priority 1998, dated 2006)",
  "note": "Non-standard residues stand in square brackets, D forms with d. No end group written: not given here. Oic = O=C(O)[C@@H]1C[C@@H]2CCCC[C@@H]2N1; dTic = O=C(O)[C@H]1Cc2ccccc2CN1",
  "data": [
    {"system": "bradykinin response of isolated guinea pig ileum", "assay": "Anti-bradykinin activity on isolated guinea pig ileum", "details": "Table 1; higher numbers indicate higher potency", "description": "(§1) In general, Anti-bradykinin activity was determined by the classical guinea pig ileum assay and on Chinese hamster ovary (CHO) cells expressing cloned human bradykinin B2 receptors. Anti-tumor activity was determined on cultured human cancer cell lines using the standard tetrazolium (MTT) assay.\n(§2) Male Hartley guinea pigs that had been deprived of food overnight were sacrificed, and sections of terminal ileum, 25 mm in length, were dissected, attached to tissue holders and immersed in 10 ml tissue baths containing Krebs' solution bubbled with 95% O2/5% CO2. Tissues were placed under 1 g tension and incubated for 1 h equilibration. Concentration-effect curves were constructed to bradykinin in the absence and presence of new compounds.", "values": [
      {"compound": "Dhq-DArg-Arg-Pro-Hyp-Gly-CpG-Ser-DCpG-CpG-Arg [B9074]", "GPI: pA2 for bradykinin antagonist activity on isolated guinea pig ileum": 6.3},
      {"compound": "F5c-Bip-Arg [M394]", "GPI: pA2 for bradykinin antagonist activity on isolated guinea pig ileum": 4.7},
      {"compound": "Dcg-Ac6c-Arg [M86]", "GPI: pA2 for bradykinin antagonist activity on isolated guinea pig ileum": 5.0},
      {"compound": "Dcg-2-Nal-Atpc-Arg [M232-3]", "GPI: pA2 for bradykinin antagonist activity on isolated guinea pig ileum": 5.1},
      {"compound": "N=C(N)NCCCC(NC(=O)C=Cc1ccc(C(F)(F)F)cc1)C(=O)O", "note": "(stereo not drawn) [M374, Tfmc-Arg]", "GPI: pA2 for bradykinin antagonist activity on isolated guinea pig ileum": 4.6},
      {"compound": "Aca-DArg-Arg-Pro-Hyp-Gly-Thi-Ser-(D,L)Igl-Oic-Arg [B9224-2]", "GPI: pA2 for bradykinin antagonist activity on isolated guinea pig ileum": 8.4},
      {"compound": "Ac-PaF(Dcg)-p-ABz-Arg [M146-2]", "GPI: pA2 for bradykinin antagonist activity on isolated guinea pig ileum": 4.9},
      {"compound": "F5c-Tyr-Arg [M380]", "GPI: pA2 for bradykinin antagonist activity on isolated guinea pig ileum": "Inact"},
      {"compound": "ε-SUB-(Lys-DArg-Arg-Eac-Ser-DF5F-Nc7G-Arg)2 [M1038]", "GPI: pA2 for bradykinin antagonist activity on isolated guinea pig ileum": 6.4},
      {"compound": "Aaa-DArg-Arg-Pro-Hyp-Gly-(D,L)DMF-Ser-DTic-Oic-Arg [B9126]", "GPI: pA2 for bradykinin antagonist activity on isolated guinea pig ileum": 6.4},
      {"compound": "Dcg-Gly-Cmp-Arg [M124]", "GPI: pA2 for bradykinin antagonist activity on isolated guinea pig ileum": 4.7},
      {"compound": "F5c-Thi-Arg [M424]", "GPI: pA2 for bradykinin antagonist activity on isolated guinea pig ileum": 4.6},
      {"compound": "Dcg-BtA-Arg [M68]", "GPI: pA2 for bradykinin antagonist activity on isolated guinea pig ileum": 4.9},
      {"compound": "Dcg-Pac-Gly-m-ABz-2-Nal-Arg [M200-2]", "GPI: pA2 for bradykinin antagonist activity on isolated guinea pig ileum": 4.9},
      {"compound": "RPPGFT[dTic][Oic]R [B10282]", "GPI: pA2 for bradykinin antagonist activity on isolated guinea pig ileum": 7.3},
      {"compound": "DDD-(DArg-hPhe-Arg)2 [M554]", "GPI: pA2 for bradykinin antagonist activity on isolated guinea pig ileum": 5.1},
      {"compound": "Mcg-Pac-Gly-m-ABz-2-Nal-Arg [M200-1]", "GPI: pA2 for bradykinin antagonist activity on isolated guinea pig ileum": "Inact"},
      {"compound": "DArg-Arg-Pro-Hyp-Gly-Thi-Ser-DTic-Nc6G-Arg [B10014]", "GPI: pA2 for bradykinin antagonist activity on isolated guinea pig ileum": 7.6},
      {"compound": "F5c-DhPhe-Arg [M730]", "GPI: pA2 for bradykinin antagonist activity on isolated guinea pig ileum": 4.7},
      {"compound": "F5c-p-Amb-Arg [M348]", "GPI: pA2 for bradykinin antagonist activity on isolated guinea pig ileum": 4.7},
      {"compound": "Ac-PaF(Mcg)-p-ABz-Arg [M146-1]", "GPI: pA2 for bradykinin antagonist activity on isolated guinea pig ileum": "Inact"},
      {"compound": "Gun-Ica-Arg [M88]", "GPI: pA2 for bradykinin antagonist activity on isolated guinea pig ileum": 4.7},
      {"compound": "DArg-Arg-NMF-Hyp-Gly-Thi-Ser-DIgl-Oic-Arg [B9966]", "GPI: pA2 for bradykinin antagonist activity on isolated guinea pig ileum": 6.9},
      {"compound": "Dcg-Atpc-Arg [M232-1]", "GPI: pA2 for bradykinin antagonist activity on isolated guinea pig ileum": 4.7},
      {"compound": "F5c-Ana-Arg [M392]", "GPI: pA2 for bradykinin antagonist activity on isolated guinea pig ileum": 4.5},
      {"compound": "Ac-PaF(Mcg)-Arg [M118-1]", "GPI: pA2 for bradykinin antagonist activity on isolated guinea pig ileum": 4.9},
      {"compound": "Aaa-DIgl-hPhe-Arg [M772]", "GPI: pA2 for bradykinin antagonist activity on isolated guinea pig ileum": 4.9},
      {"compound": "DArg-Arg-Nig-Hyp-Gly-Igl-Ser-DIgl-Oic-Arg [B9960]", "GPI: pA2 for bradykinin antagonist activity on isolated guinea pig ileum": 7.7},
      {"compound": "N=C(N)NCCCC(NC(=O)C=Cc1c(F)c(F)c(F)c(F)c1F)C(=O)O", "note": "(stereo not drawn) [M370, F5c-Arg]", "GPI: pA2 for bradykinin antagonist activity on isolated guinea pig ileum": 4.8},
      {"compound": "F5c-Lys(F5bz)-Arg [M682]", "GPI: pA2 for bradykinin antagonist activity on isolated guinea pig ileum": 4.9},
      {"compound": "DArg-Arg-Pro-Hyp-Gly-Igl-Ser-DIgl-Nc7G-Arg [B10010]", "GPI: pA2 for bradykinin antagonist activity on isolated guinea pig ileum": 7.7},
      {"compound": "DArg-Arg-Pro-Hyp-Gly-Phe-Ser-DCpG-CpG-Arg [B8840]", "GPI: pA2 for bradykinin antagonist activity on isolated guinea pig ileum": 6.8},
      {"compound": "F5c-p-Amb-APa-Arg [M352]", "GPI: pA2 for bradykinin antagonist activity on isolated guinea pig ileum": 4.7},
      {"compound": "F5c-Trp-Arg [M426]", "GPI: pA2 for bradykinin antagonist activity on isolated guinea pig ileum": "Inact"},
      {"compound": "Aaa-DTic-hPhe-Arg [M764]", "GPI: pA2 for bradykinin antagonist activity on isolated guinea pig ileum": 4.8},
      {"compound": "DDD-(Eac-Arg-Digl-Oic-Arg)2 [B10198-1]", "GPI: pA2 for bradykinin antagonist activity on isolated guinea pig ileum": 5.7},
      {"compound": "F5c-Phe-Arg [M410]", "GPI: pA2 for bradykinin antagonist activity on isolated guinea pig ileum": 5.4},
      {"compound": "F5c-Pac-Arg [M398]", "GPI: pA2 for bradykinin antagonist activity on isolated guinea pig ileum": "Inact"},
      {"compound": "F5c-p-ABz-Arg [M148]", "GPI: pA2 for bradykinin antagonist activity on isolated guinea pig ileum": 5.1},
      {"compound": "F5c-Lys{(CH3)3}-Arg [M388]", "GPI: pA2 for bradykinin antagonist activity on isolated guinea pig ileum": 4.9},
      {"compound": "F5c-PNF-Arg [M732]", "GPI: pA2 for bradykinin antagonist activity on isolated guinea pig ileum": 4.9}
    ]},
    {"system": "bradykinin response of isolated guinea pig ileum", "assay": "Anti-bradykinin activity on isolated guinea pig ileum", "details": "guinea pig ileum", "description": "as §1, §2", "values": [
      {"compound": "RPPGFSPFR [BK, reference compound]", "pD2 of bradykinin on ileum": 7.4}
    ]},
    {"system": "bradykinin response of isolated guinea pig ileum", "assay": "Anti-bradykinin activity on isolated guinea pig ileum", "details": "isolated guinea pig ileum; pD2 of bradykinin is 7.4; higher numbers indicate higher potency", "description": "as §1, §2", "values": [
      {"compound": "N=C(N)NC(Cc1ccc2ccccc2c1)C(=O)Nc1ccc(CC(=O)O)cc1", "note": "(stereo not drawn) [M32]", "GPI: pA2 for bradykinin antagonist activity on isolated guinea pig ileum": 4.8},
      {"compound": "O=C(O)CC(NC(=O)C(Cc1ccc2ccccc2c1)NC(=NC1CCCCC1)NC1CCCCC1)C(=O)NC1CN2CCC1CC2", "note": "(single isomer, unassigned) [M336-2]", "GPI: pA2 for bradykinin antagonist activity on isolated guinea pig ileum": 5.4},
      {"compound": "O=C(C[C@H](NC(=O)[C@H](Cc1ccc2ccccc2c1)NC(=NC1CCCCC1)NC1CCCCC1)C(=O)O)NC1CN2CCC1CC2", "note": "(stereo partly drawn) [M188B]", "GPI: pA2 for bradykinin antagonist activity on isolated guinea pig ileum": 5.5},
      {"compound": "N=C(N)Nc1ccc(CC(NC(=O)C(Cc2ccc3ccccc3c2)NC(=NC2CCCCC2)NC2CCCCC2)C(=O)O)cc1", "note": "(stereo not drawn) [M354]", "GPI: pA2 for bradykinin antagonist activity on isolated guinea pig ileum": 5.2},
      {"compound": "O=C(O)CC(NC(=O)C(Cc1ccc2ccccc2c1)NC(=NC1CCCCC1)NC1CCCCC1)C(=O)NC1CN2CCC1CC2", "note": "(single isomer, unassigned) [M336-1]", "GPI: pA2 for bradykinin antagonist activity on isolated guinea pig ileum": 5.1},
      {"compound": "CC1(C)CC(NC(=O)C(CC(=O)O)NC(=O)Cc2ccc(NC(=O)C=Cc3c(F)c(F)c(F)c(F)c3F)cc2)CC(C)(C)N1", "note": "(stereo not drawn) [M364]", "GPI: pA2 for bradykinin antagonist activity on isolated guinea pig ileum": 4.7},
      {"compound": "O=C(C=Cc1c(F)c(F)c(F)c(F)c1F)NCC(=O)Nc1cccc(C(=O)N[C@@H](Cc2ccc3ccccc3c2)C(=O)O)c1", "note": "[M202]", "GPI: pA2 for bradykinin antagonist activity on isolated guinea pig ileum": 5.1},
      {"compound": "CC1(C)CC(NC(=O)C(CC(=O)O)NC(=O)C(Cc2ccc3ccccc3c2)NC(=NC2CCCCC2)NC2CCCCC2)CC(C)(C)N1", "note": "(stereo not drawn) [M342]", "GPI: pA2 for bradykinin antagonist activity on isolated guinea pig ileum": 5.4},
      {"compound": "O=C(O)c1ccc(NC(=O)C(Cc2ccc3ccccc3c2)NC(=NC2CCCCC2)NC2CCCCC2)cc1", "note": "(stereo not drawn) [M120]", "GPI: pA2 for bradykinin antagonist activity on isolated guinea pig ileum": 4.7},
      {"compound": "N=C(N)NC(Cc1ccc2ccccc2c1)C(=O)Nc1ccc(CC(=O)O)cc1", "note": "(stereo not drawn) [M38]", "GPI: pA2 for bradykinin antagonist activity on isolated guinea pig ileum": 4.9},
      {"compound": "O=C(O)c1cccc(NC(=O)C(Cc2ccc3ccccc3c2)NC(=NC2CCCCC2)NC2CCCCC2)c1", "note": "(stereo not drawn) [M112]", "GPI: pA2 for bradykinin antagonist activity on isolated guinea pig ileum": 5.1},
      {"compound": "O=C(O)CC(NC(=O)C(Cc1ccc2ccccc2c1)NC(=NC1CCCCC1)NC1CCCCC1)C(=O)O", "note": "(stereo not drawn) [M162]", "GPI: pA2 for bradykinin antagonist activity on isolated guinea pig ileum": 4.9},
      {"compound": "O=C(O)c1cccc(NC(=O)C(Cc2ccc3ccccc3c2)NC(=NC2CCCCC2)NC2CCCCC2)c1", "note": "(stereo not drawn) [M76]", "GPI: pA2 for bradykinin antagonist activity on isolated guinea pig ileum": 4.9},
      {"compound": "CC1(C)CC(NC(=O)[C@@H](NC(=NC2CCCCC2)NC2CCCCC2)C2Cc3ccccc3C2)CC(C)(C)N1Cc1ccccc1", "note": "[M258]", "GPI: pA2 for bradykinin antagonist activity on isolated guinea pig ileum": 5.0},
      {"compound": "N=C(Nc1ccc(CC(=O)Nc2cccc(C(=O)O)c2)cc1)NC1CCCCC1", "note": "[M122-1]", "GPI: pA2 for bradykinin antagonist activity on isolated guinea pig ileum": 5.0},
      {"compound": "O=C(O)Cc1ccc(NC(=O)C(NC(=NC2CCCCC2)NC2CCCCC2)C2Cc3ccccc3C2)cc1", "note": "(stereo not drawn) [M72-1]", "GPI: pA2 for bradykinin antagonist activity on isolated guinea pig ileum": 4.7},
      {"compound": "O=C(O)C(Cc1cccnc1)NC(=O)C(Cc1ccc2ccccc2c1)NC(=NC1CCCCC1)NC1CCCCC1", "note": "(stereo not drawn) [M104]", "GPI: pA2 for bradykinin antagonist activity on isolated guinea pig ileum": 4.9},
      {"compound": "CC(=O)Nc1ccc(C=CC(=O)NCC(=O)Nc2cccc(C(=O)NC(Cc3ccc4ccccc4c3)C(=O)O)c2)cc1", "note": "(stereo not drawn) [M204]", "GPI: pA2 for bradykinin antagonist activity on isolated guinea pig ileum": 5.0}
    ]}
  ]
}
